In patent publication US11517629B2, “Methods of treating cells containing fusion genes by genomic targeting” (UNIVERSITY OF PITTSBURGH—OF THE COMMONWEALTH SYSTEM OF …, priority 2016, dated 2022):

Tests used:
[1] = test system: DU145 BP; experiment: TUNEL assay of xenografted cancers; format: in vivo, human; conditions: DU145 BP clone containing TMEM135-CCDC67 breakpoint; FIG. 16B, treated with Ad-TC
Description: (§1) FIG. 16A-B. (A) Expression of Cas9^D10A and HSV1-tk in HUH7 or HEP3B tumors treated with Ad-TC or pAD5-Cas9^D10A-gRNAMAN2A1^int13-gRNAFER^int14/pAD-MAN2A1^int13-EGFP-tk-FER^int14 (Ad-MF). Green arrows indicate unstained mouse stromal cells. (B) Genome therapy induced apoptosis of xenografted cancers that contain fusion gene breakpoints. Terminal deoxynucleotidyl transferase (TdT) dUTP Nick-End Labeling (TUNEL) assays were performed on the PC3 BP, DU145 BP, PC3 CMV, DU145 CMV, or HUH7 xenografted cancers treated with either Ad-TC or Ad-MF.
(§2) Immunohistochemistry. Immunohistochemistry was performed as described previously 6 with antibodies specific for HSV-1 TK (1:100 dilution) or for Cas9 (1:100 dilution). The antibody was omitted in negative controls. The sections were then incubated with horseradish peroxidase conjugated anti-rabbit IgG for 30 minutes at room temperature (ABC kit from Vector Labs, Inc). Slides were then exposed to a 3,3′-diaminobenzidine solution to visualize immunostaining. Counterstaining was performed by incubating the slides in 1% Hematoxylin solution for 2 minutes at room temperature. The slides were then rinsed briefly in distilled water to remove excessive staining. The procedure of TUNEL assays is similar to that previously described (13).

[2] = test system: PC3 BP; experiment: TUNEL assay of xenografted cancers; format: in vivo, human; conditions: PC3 BP clone containing TMEM135-CCDC67 breakpoint; FIG. 16B, treated with Ad-TC
Description: as §1, §2

Compound: Nc1nc(O)c2ncn(COC(CO)CO)c2n1 [ganciclovir]
- cell death observed by tunel staining [1]: significant cell death
- cell death observed by tunel staining [2]: significant cell death
